This note sets out measurements from patent US8771742B2, “Porous cellulose aggregate and molding composition thereof” (Asahi Kasei Chemicals Corporation, priority 2005, dated 2014).

Holding throughout (type): physicochemical
Data set [1] is described as follows: Repose angle (Sugihara type device). The following applies: low fluidity component model without cellulose. As to the method:
Using a Sugihara type repose angle measuring device (slit size: depth 10 mm×width 50 mm×height 140 mm, a protractor was placed at the position of 50 mm width), the dynamic self-fluidity was measured when cellulose powder was dropped to the slit at 3 g/minute using a quantitative feeder. The angle between the bottom of the device and the top layer of the cellulose powder is the repose angle.

Data set [2] can be described thus: Elution test of drug from cylindrical molded body (paddle, UV absorbance). The following applies: ethenzamide; molded body 50 MPa; paddle 100 rpm, 900 mL Pharmacopeia I liquid. The procedure:
Cellulose particles A were used. A commercially available ibuprofen (an active component indicated as being almost completely insoluble in water according to Japanese Pharmacopeia 14) was dissolved in polyethylene glycol (Macrogol 400 from Sanyo Kasei Co., Ltd.) at a proportion of 1:5, and then diluted by 10 with ethanol. This was added to the cellulose particles A to result in 10% by weight. The mixture was stirred in a die. A die (from KIKUSUI SEISAKUSHO LTD, made with SUS 2, 3) was filled with 0.2 g of the obtained powder, and a circular flat punch (from KIKUSUI SEISAKUSHO LTD, made with SUS 2, 3) with a diameter of 0.8 cm was used to apply compression until the pressure reached 100 MPa (PCM-1A (Commercial Name) from AIKOH ENGINEERING CO., LTD. was used with a compression rate of 1 cm/min). The cylindrical molded body was released after the target pressure was maintained for 10 seconds. Fluid component effusion on the surface of the molded body was observed, drug elution from the cylindrical molded body (elution tests were conducted with a JASCO Corporation ultraviolet absorption spectrometer at paddle speed 100 rpm and 900 mL of Pharmacopeia I liquid, in which fluid absorbance was measured and the elution rate was calculated 3 minutes after) and disintegration time of the cylindrical molded bodies was measured. […]

Data set [3] in a line: Reactivity to a drug: aspirin decomposition rate after storage mixed with cellulose. The settings on record: 60° C., two weeks, closed vial. The procedure:
(12) Reactivity to a Drug
Aspirin (Japanese Pharmacopeia crystalline aspirin was treated with a small grinder φ0.5 mm, with 1 pass treatment) and each cellulose sample was mixed at 5/5 (total 0.5 g) in dry conditions and then placed in a glass sample vial and mixed. The vial was stored in an oven (Made by Tabai Espec Corp. Perfect Oven (Commercial Name)) with the cap tightly closed (at 60° C.) for two weeks and then the decomposition rate was measured. Ferric (III) […] sulfate 12 hydrate 8 g was placed in a 100 ml measuring flask, mixed with pure water to bring the volume up to 100 ml to make a coloring test solution. 0.25 g of stored aspirin (total 0.5 g of the blended powder) was introduced to a 50 ml measuring flask, mixed with ethanol to bring the volume up to 50 ml and the mixture was shaken for 5 minutes. Thus obtained ethanol solution was filtered, the filtrate was transferred to a 100 ml measuring flask and ethanol was added to bring the volume up to 100 ml. One milliliter of this ethanol solution and 1 ml of the coloring test solution described above were introduced to a 50 ml measuring flask, mixed with pure water to bring the volume up to 50 ml and the absorption was measured at the wavelength of 532 nm using a UV absorption meter (made by JASCO Corporation). The decomposition rate was calculated from the following formula. […]

On to `CC(=O)Nc1ccc(O)cc1` [Component model C, Acetaminophen], for which, in data set [1], the “Repose angle Before the addition of cellulose” value was 55 °. On to `CCOc1ccccc1C(N)=O` [Comparative Example 76, ethenzamide], for which the “Elution rate after 1 hour” value in data set [2] is on record as 9%. Regarding `CC(=O)Oc1ccccc1C(=O)O` [aspirin, Aspirin], the aspirin decomposition rate in data set [3] is given as 15%.
